# Assay results taken from patent US8658649B2, “Kinase inhibitor” (Sanofi, priority 2006, dated 2014).
# Test system: Collagen-induced arthritis (CIA)
# Experiment: Rat collagen induced arthritis, combination dosing with Methotrexate
# Assay type: in vivo
# Procedure: Immunization and Challenge: Female Lewis rats were immunized on day 0 and challenged on day 7 with cII from bovine nasal mixed with Freund's incomplete adjuvant at a final collagen concentration of 1.0 mg/ml. The animals were injected at the base of the tail with 400 μg of cII. Combination Dosing Regimen: Rats were dosed with the compound of Formula I (3.0 and 10 mg/kg, p.o., bi.d.) or Methotrexate (MTX, 0.1 and 0.2 mg/kg, p.o., q.d.) as monotherapy or in combinations consisting of each dose of the compound of Formula I with each dose of MTX starting on day 6 and continuing through day 21. Joint Pathology Ankle joint swelling was measured to the nearest 0.01 mm by using electronic digital calipers. Measurements were recorded 7 times throughout the study starting on day 6 and ending on day 21. Body weights were recorded on the same days. On day 21, hind paws were removed at the hairline just above the ankle and fixed in 10% neutral buffered formalin. MicroCT analysis: Ankle joints were examined using a cone-beam μCT scanner. A scout view scan was obtained first for selection of the examination volume of the specimens, followed by positioning, measurement and computational reconstruction. In ankle joints, the ratio of bone surface to bone volume, describing the complexity of bone surface in a certain volume, was analyzed. Statistical Analysis For joint swelling/inflammation, data were analyzed using Everstat v.5 software and a 2-way repeated measure ANOVA with Dunnett's post test. MicroCT data were analyzed by Everstat using a 1-way ANOVA and Newman-Keuls multiple comparison test.
structure (smiles),measurement,setting,value
"CN(Cc1cnc2nc(N)nc(N)c2n1)c1ccc(C(=O)N[C@@H](CCC(=O)O)C(=O)O)cc1 [MTX, Methotrexate, reference compound]","bone erosion, MicroCT",MTX 0.1 mg/kg monotherapy,effect was not seen
same,"bone erosion, MicroCT",MTX 0.2 mg/kg po qd monotherapy,significant decrease in bone erosion
